# Experimental data taken from ChEMBL document CHEMBL1201862, “PubChem BioAssay data set” (2004).
#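 All cell lines were grown in 96-well plates and treated with compound for 48 hours. GI50 is the concentration that inhibits growth by half.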 Calls of active or inactive are those of the source. No stated cut-off is given here; in the data, active = GI50 up to about 1.1 µM and inactive = higher.
# Columns and labels:
# Assay in all cases: DTP human tumour cell line panel, 48 h
# [1] = system: OVCAR-8
# [2] = system: SK-OV-3
# [3] = system: EKVX
# [4] = system: SK-MEL-2
# [5] = system: K562
# [6] = system: ACHN
# [7] = system: NCI-H226
# [8] = system: KM12
# [9] = system: MCF7
# [10] = system: COLO 205
# [11] = system: SW-620
# [12] = system: HT-29
# [13] = system: SN12C
# [14] = system: NCI-H460
# [15] = system: Malme-3M
# [16] = system: SK-MEL-28
# [17] = system: BT-549
# [18] = system: LOX IMVI
# [19] = system: SF-539
# [20] = system: SK-MEL-5
SMILES,GI50 [1],GI50 [2],GI50 [3],GI50 [4],GI50 [5],GI50 [6],GI50 [7],GI50 [8],GI50 [9],GI50 [10],GI50 [11],GI50 [12],GI50 [13],GI50 [14],GI50 [15],GI50 [16],GI50 [17],GI50 [18],GI50 [19],GI50 [20]
OCCCNc1[nH]cnc2nncc1-2,> 100 µM (inactive),> 100 µM (inactive),> 100 µM (inactive),> 100 µM (inactive),> 100 µM (inactive),> 100 µM (inactive),> 100 µM (inactive),> 100 µM (inactive),> 100 µM (inactive),> 100 µM (inactive),> 100 µM (inactive),> 100 µM (inactive),> 100 µM (inactive),> 100 µM (inactive),> 100 µM (inactive),> 100 µM (inactive),> 100 µM (inactive),> 100 µM (inactive),41.1 µM (inactive),> 100 µM (inactive)
O=C1c2cccnc2C(=O)c2c1nc1ccccc1c2-c1ccc2c3c(nc4ccccc42)C(=O)c2cccnc2-c13,0.37 µM (active),1.85 µM (inactive),0.94 µM (active),2.1 µM (inactive),1.58 µM (inactive),0.383 µM (active),0.859 µM (active),0.971 µM (active),2.07 µM (inactive),2.08 µM (inactive),0.268 µM (active),2.38 µM (inactive),0.912 µM (active),1.55 µM (inactive),1.04 µM (active),2.55 µM (inactive),2.46 µM (inactive),0.437 µM (active),0.832 µM (active),0.467 µM (active)
C=C(C)C1CC2=C(C(=O)OC)C=C(O2)C(C(=C)C)[C@@H]2OC(=O)/C(=C\C1O)[C@H]2N(C)C (stereo not given in full),10.9 µM (inactive),24.9 µM (inactive),11.7 µM (inactive),13 µM (inactive),3.6 µM (inactive),11.7 µM (inactive),7.69 µM (inactive),13.7 µM (inactive),5.92 µM (inactive),9.4 µM (inactive),7.33 µM (inactive),15 µM (inactive),12.5 µM (inactive),15.2 µM (inactive),12.9 µM (inactive),13.1 µM (inactive),9.75 µM (inactive),8.09 µM (inactive),7.4 µM (inactive),14.2 µM (inactive)
CC1(C)C(=O)/C=C\C(=O)C(C)(C)C(=O)/C=C\C(=O)C(C)(C)C(=O)/C=C\C(=O)C(C)(C)C(=O)/C=C\C1=O,19.7 µM (inactive),> 70 µM (inactive),39.6 µM (inactive),25.2 µM (inactive),5.43 µM (inactive),26.8 µM (inactive),> 63 µM (inactive),40 µM (inactive),45.9 µM (inactive),15.5 µM (inactive),11.1 µM (inactive),17.7 µM (inactive),24.3 µM (inactive),56.6 µM (inactive),17.1 µM (inactive),26.5 µM (inactive),> 10 µM (inactive),25.2 µM (inactive),28 µM (inactive),22.6 µM (inactive)
Cc1ccc(C)n1-c1ccccc1C1C=Cn2c(=O)oc3c(OC(C)C)c(OC(C)C)c(O)c1c32 (stereo not given),49.1 µM (inactive),> 100 µM (inactive),23.1 µM (inactive),7.33 µM (inactive),4.67 µM (inactive),33.3 µM (inactive),15.8 µM (inactive),8.11 µM (inactive),16.6 µM (inactive),13.9 µM (inactive),11.4 µM (inactive),18.2 µM (inactive),76.6 µM (inactive),22.3 µM (inactive),33.7 µM (inactive),28.6 µM (inactive),43.5 µM (inactive),14.2 µM (inactive),> 100 µM (inactive),14.4 µM (inactive)
O=S(=O)(O)c1ccc(NN(c2c(O)ccc3ccccc23)S(=O)(=O)O)cc1,> 100 µM (inactive),> 100 µM (inactive),> 100 µM (inactive),> 100 µM (inactive),> 100 µM (inactive),> 100 µM (inactive),> 100 µM (inactive),> 100 µM (inactive),> 100 µM (inactive),> 100 µM (inactive),> 100 µM (inactive),> 100 µM (inactive),> 100 µM (inactive),> 100 µM (inactive),> 100 µM (inactive),> 100 µM (inactive),> 100 µM (inactive),> 100 µM (inactive),> 100 µM (inactive),> 100 µM (inactive)
O=C(OC12CC3CC(CC(C3)C1)C2)c1ccc(NCc2cc(O)ccc2O)cc1,1.1 µM (active),2.99 µM (inactive),0.843 µM (active),1.35 µM (inactive),0.622 µM (active),0.968 µM (active),1.33 µM (inactive),1.16 µM (inactive),0.48 µM (active),0.285 µM (active),1.67 µM (inactive),1.48 µM (inactive),1.42 µM (inactive),2.53 µM (inactive),0.625 µM (active),0.489 µM (active),0.333 µM (active),0.859 µM (active),0.467 µM (active),1.24 µM (inactive)
CCN(CC)CCCC(C)Nc1c2ccc(Cl)cc2nc2ccc(OC)cc12 (stereo not given),1.05 µM (active),4.84 µM (inactive),4.61 µM (inactive),1.67 µM (inactive),0.824 µM (active),2.42 µM (inactive),4 µM (inactive),1.63 µM (inactive),2.08 µM (inactive),1.24 µM (inactive),0.637 µM (active),1.03 µM (active),2.32 µM (inactive),0.673 µM (active),1.9 µM (inactive),1.61 µM (inactive),2.47 µM (inactive),1.07 µM (active),1.67 µM (inactive),1.71 µM (inactive)
Cc1ccc2ccc3ccc(C)nc3c2n1 [NEOCUPROINE],> 26.9 µM (inactive),> 100 µM (inactive),> 100 µM (inactive),> 100 µM (inactive),0.542 µM (active),> 100 µM (inactive),33.4 µM (inactive),12.5 µM (inactive),0.318 µM (active),0.491 µM (active),51.5 µM (inactive),0.908 µM (active),> 100 µM (inactive),2.19 µM (inactive),> 100 µM (inactive),> 100 µM (inactive),> 100 µM (inactive),4.09 µM (inactive),49.2 µM (inactive),> 26.2 µM (inactive)
